Several values for one entry are separate records, joined by “and”; a condition that tells them apart may be missing. Equal entries are not always repeated. Structures can show the parent of a compound that is named as a salt.

The target in one test is steroid site on the GABAA receptor-chloride channel complex. Put plainly: [35S]TBPS binding assay. More on the design: species or system Male Sprague-Dawley rats. To be noted: inhibition of [35S]TBPS (2 nM) binding, rat cerebral cortex P2 membranes, 5 µM GABA, 90 minute incubation at 22°C. The protocol: TBPS binding assays were conducted according to the following procedures, which are described in Gee, K.W.; Lawrence, L.J.; and Yamamura, H. I., "Modulation of the Chloride Ionophore by Benzodiazepine Receptor Ligands Influence of Gamma-Aminobutyric Acid and Ligand Efficacy," Molecular Pharmacology, 30:218, 1986. Male Sprague-Dawley rats (200-250g) were anesthetized with carbon dioxide and decapitated. The rats' brains were removed and the cerebral cortices were dissected and homogenized in 10 volumes of 0.32 M sucrose. Tissue was centrifuged at 1000 x g for 10 minutes and the resultant supernatant was centrifuged at 9,000 g for 20 minutes. The resultant pellet was resuspended in 10 volumes of 200 mM NaCl/50 mM Na-K phosphate pH 7.4 buffer (binding buffer) and then centrifuged at 9,000 x g for 10 minutes. This washing procedure was repeated twice and the final P2 pellet was resuspended in the binding buffer. For the binding assay, [^35S] TBPS (2 nM) was co-incubated in binding buffer with P2 membranes and 5 µM GABA and either 1) no additions to measure total binding; 2) 2 µM unlabeled TPBS to measure nonspecific binding; 3) the neurosteroid ranging in concentration from 1 Nm to 10µM. Following a 90 minute incubation at 22°C, the suspension was filtered and the bound radioactivity was determined by liquid scintillation counting. […] A lower IC50 indicates higher affinity for the steroid site on the GABAA receptor-chloride channel complex. Table 1 gives the IC50 values of representative steroids used in the present invention.
Turning to `C=CC[C@@]1(O)CC[C@@]2(C)[C@H](CC[C@@H]3[C@@H]2CC[C@]2(C)[C@@H](C(C)=O)CC[C@@H]32)C1` [3α-Hydroxy-3β-(2'-propenyl)-5β-pregnan-20-one], the IC50 – broadly, the concentration that gives 50% inhibition – worked out at 75 nM.
Take `CCCCC#C[C@@]1(O)CC[C@@]2(C)[C@H](CC[C@@H]3[C@@H]2CC[C@]2(C)[C@@H](C(C)=O)CC[C@@H]32)C1` [3β-(1-Hexynyl)-3α-hydroxy-5β-pregnan-20-one]: the IC50 amounted to 44 nM.
The molecule `C/C=C1/CC[C@H]2[C@@H]3CC[C@H]4C[C@H](O)CC[C@@H]4[C@H]3CC[C@]12C` [3α-hydroxy-19-nor-5α-pregnan-cis-17(20)-ene] gave an IC50 of 373 nM.
The same measure, in the same setting: the same measure for `C[C@H](O)[C@H]1CC[C@H]2[C@@H]3CC[C@H]4C[C@](C)(O)CC[C@]4(C)[C@H]3CC[C@]12C` [3α,20a-dihydroxy-30-methyl-5α-pregnane]: 166 nM; for `C[C@]12CC[C@H]3[C@@H](CC[C@@H]4C[C@@](O)(C(F)(F)F)CC[C@@H]43)[C@@H]1CC[C@@H]2C(=O)CO` [3α, 21-Dihydroxy-3β-trifluoromethyl-19-nor-5β-pregnan-20-one]: 265 nM; for `COCC(=O)[C@H]1CC[C@H]2[C@@H]3CC[C@@H]4C[C@@](O)(C(F)(F)F)CC[C@@H]4[C@H]3CC[C@]12C` [3α-hydroxy-21-methoxy-3β-trifluoromethyl-5β-19-nor-pregnan-20-one]: 252 nM.
`C/C=C1/CC[C@H]2[C@@H]3CC[C@@H]4C[C@H](O)CC[C@@H]4[C@H]3CC[C@]12C` [3α-Hydroxy-5β-19-nor-pregn-17(z) ene] returned an IC50 of 209 nM.
In the case of `CC[C@H](O)[C@H]1CC[C@H]2[C@@H]3CC[C@H]4C[C@H](O)CC[C@]4(C)[C@H]3CC[C@]12C` [3α,20a-Dihydroxy-21-methyl-5α-pregnane], the IC50 turned out to be 35 nM.
On the same count and under the same terms, the same measure for `COc1ccc(C#C[C@@]2(O)CC[C@@]3(C)[C@H](CC[C@@H]4[C@@H]3CC[C@]3(C)[C@@H](C(C)=O)CC[C@@H]43)C2)cc1OC` [3β-[(3',4'-Dimethoxyphenyl)ethynyl] -3α-hydroxy-5/3-pregnan-20-one]: 283 nM; for `CC(=O)[C@H]1CC[C@H]2[C@@H]3CC[C@H]4C[C@](C)(O)CC[C@@H]4[C@H]3CC[C@]12C` [3α-hydroxy-3β-methyl-5α-19-nor-pregnan-20-) one]: 91 nM.
Molecule `CO/C=C1/CC[C@H]2[C@@H]3CC[C@H]4C[C@H](O)CC[C@@H]4[C@H]3CC[C@]12C` [3α-hydroxy-17(Z)-methoxymethylene-19-nor-5α-androstane] gave an IC50 of 350 nM.
`CCC(=O)[C@H]1CC[C@H]2[C@@H]3CC[C@@H]4C[C@H](O)CC[C@]4(C)[C@H]3CC[C@]12C` [3α-hydroxy-21-methyl-5β-pregnan-20-one] registered a concentration for half-maximal inhibition (IC50) of 78 nM.
`C=C=CC[C@@]1(O)CC[C@@]2(C)[C@@H](CC[C@@H]3[C@@H]2CC[C@]2(C)[C@@H](C(C)=O)CC[C@@H]32)C1` [3β-(Buta-2,3-dienyl)-3α-hydroxy-5α-pregnan-20-one] yielded an IC50 of 347 nM.
In turn, `C[C@]12CC[C@@H](O)C[C@@H]1CC[C@@H]1[C@@H]2CC[C@]2(C)[C@@H](CO)CC[C@@H]12` [3α-hydroxy-17b-hydroxymethyl-5α-androstane-] yielded an IC50 of 455 nM.
On the same count and under the same terms, to `CCC[C@H](O)[C@H]1CC[C@H]2[C@@H]3CC[C@H]4C[C@H](O)CC[C@]4(C)[C@H]3CC[C@]12C` [3α,20a-Dihydroxy-21-ethyl-5α-pregnane] belongs 27 nM; to `CC(C)(O)[C@H]1CC[C@H]2[C@@H]3CC[C@H]4C[C@](C)(O)CC[C@]4(C)[C@H]3CC[C@]12C` [3α, 20-dihydroxy-3β, 20-dimethyl-5α-pregnane], 264 nM; to `C[C@]12CC[C@@H](O)C[C@H]1CC[C@@H]1[C@@H]2CC[C@]2(C)[C@@H](C(=O)CO)CC[C@@H]12` [3α,21-dihydroxy-50-pregnan-20-one], 180 nM.
On to `CC(=O)OCC(=O)[C@H]1CC[C@H]2[C@@H]3CC[C@H]4C[C@H](O)CC[C@]4(C)[C@H]3CC[C@]12C` [3α,21-dihydroxy-5α-pregnan-20-one 21-acetate], for which the IC50 is 75 nM and 119 nM.
On the same count and under the same terms, the same measure for `C[C@]12CC[C@@H](O)C[C@@H]1CC[C@@H]1[C@@H]2CC[C@]2(C)[C@@H](C(=O)COC(=O)CCC(=O)O)CC[C@@H]12` [3α,21-dihydroxy-5α-pregnan-20-one 21-hemisuccinate]: 117 nM; for `CC(=O)[C@H]1CC[C@H]2[C@@H]3CC[C@H]4C[C@@](O)(CN=[N+]=[N-])CC[C@]4(C)[C@H]3CC[C@]12C` [3β-azidomethyl-3α-hydroxy-5α-pregnan-20-one]: 34 nM; for `C#C[C@@]1(O)CC[C@@]2(C)[C@H](CC[C@@H]3[C@@H]2CC[C@]2(C)[C@@H](C(=O)COC(C)=O)CC[C@@H]32)C1` [3α, 21-Dihydroxy-3β-ethynyl-5β-pregnan-20-one, 21-acetate]: 251 nM.
In the case of `CC(=O)[C@H]1CC[C@H]2[C@@H]3CC[C@@H]4C[C@@](O)(C#CCl)CC[C@]4(C)[C@H]3CC[C@]12C` [3β-(chloroethynyl)-3α-hydroxy-5β-pregnan-20-one], the IC50 is 26 nM.
Consider “3α-Hydroxy-3β-trifluoromethyl-5β-19-nor-pregn-17(20)-ene”, for which the concentration for half-maximal inhibition (IC50) was found to be 482 nM.
Same read-out and setting: to `C[C@@]1(O)CC[C@@]2(C)[C@@H](CC[C@@H]3[C@@H]2CC[C@]2(C)[C@@H](C(=O)COS(C)(=O)=O)CC[C@@H]32)C1` [3α, 21-dihydroxy-3β-methyl-5α-pregnan-20-one 21-mesylate] belongs 255 nM.
The same measure, in the same setting: the same measure for `C/C=C1/CC[C@H]2[C@@H]3CC[C@@H]4C[C@H](O)CC[C@]4(C)[C@H]3CC[C@]12C` [3α-hydroxy-5β-pregnan-cis(Z)-17(20)-ene]: 180 nM.
Same read-out and setting: to `CC(=O)OCC(=O)[C@H]1CC[C@H]2[C@@H]3CC[C@@H]4C[C@@](O)(C(F)(F)F)CC[C@]4(C)[C@H]3CC[C@]12C` [3α,21-Dihydroxy-3β-trifluoromethyl-5β-pregnan-20-one, 21-acetate] belongs 370 nM.
For the molecule `C[C@]12CC[C@@H](O)C[C@H]1CC[C@@H]1[C@@H]2CC[C@]2(C)[C@@H](C(=O)COC(=O)CCC(=O)O)CC[C@@H]12` [3α,21-dihydroxy-5β-pregnan-20-one 21-hemisuccinate], the IC50 worked out at 224 nM.
Same read-out and setting: to `CCC(=O)[C@H]1CC[C@H]2[C@@H]3CC[C@H]4C[C@](C)(O)CC[C@]4(C)[C@H]3CC[C@]12C` [3α-hydroxy-3β,21-dimethyl-5α-pregnan-20-one] belongs 89 nM.
The molecule `CCOC(=O)c1ccc(C#C[C@@]2(O)CC[C@@]3(C)[C@H](CC[C@@H]4[C@@H]3CC[C@]3(C)[C@@H](C(C)=O)CC[C@@H]43)C2)cc1` [3β-(4'-Carboxyphenyl)ethynyl-3α-hydroxy-5β-pregnan-20-one ethyl ester] showed an IC50 of 8 nM.
Regarding “20,20-ethylenedioxy-3α-hydroxy-5α-pregnan-20-one”, the concentration for half-maximal inhibition (IC50) was determined as 176 nM.
On the same count and under the same terms, to `CC(=O)[C@H]1CC[C@H]2[C@@H]3CC[C@H]4C[C@@](O)(CBr)CC[C@]4(C)[C@H]3CC[C@]12C` [3β-(Bromomethyl)-3α-hydroxy-5α-pregnan-20-one] belongs 190 nM; to `C#C[C@@]1(O)CC[C@@]2(C)[C@@H](CC[C@@H]3[C@@H]2CC[C@]2(C)[C@@H](C(=O)CO)CC[C@@H]32)C1` [3α,21-Dihydroxy-3β-ethynyl-5α-pregnan-20-one], 216 nM.
On the same count and under the same terms, the same measure for `C/C=C1/CC[C@H]2[C@@H]3CC[C@H]4C[C@](C)(O)CC[C@@H]4[C@H]3CC[C@]12C` [3α-hydroxy-3β-methyl-5α-19-nor-pregn-(Z)-17(20)-ene]: 364 nM.
Consider `CCCCCCC#C[C@@]1(O)CC[C@@]2(C)[C@H](CC[C@@H]3[C@@H]2CC[C@]2(C)[C@@H](C(C)=O)CC[C@@H]32)C1` [3β-(1-Octynyl)-3α-hydroxy-5β-pregnan-20-one], for which the 50% inhibitory concentration (IC50) amounted to 63 nM.
In turn, `CC(=O)[C@H]1CC[C@H]2[C@@H]3CC[C@H]4C[C@@](O)(CCl)CC[C@]4(C)[C@H]3CC[C@]12C` [3α-hydroxy-3β-chloromethyl-5α-pregnan-20-one] came in with an IC50 of 93 nM.
Same read-out and setting: to `C[C@H](O)[C@H]1CC[C@H]2[C@@H]3CC[C@@H]4C[C@H](O)CC[C@]4(C)[C@H]3CC[C@]12C` [3α, 20a-dihydroxy-5β-pregnane] belongs 292 nM; to `CC(=O)[C@H]1CC[C@H]2[C@@H]3CC[C@H]4C[C@@](O)(CF)CC[C@]4(C)[C@H]3CC[C@]12C` [3α-hydroxy-3β-fluoromethyl-5α-pregnan-20-one], 200 nM; to `C[C@]12CC[C@@H](O)C[C@@H]1CC[C@@H]1[C@@H]2CC[C@]2(C)[C@@H](C(=O)CSc3ccncc3)CC[C@@H]12` [3α-hydroxy-21-(pyrid-4-ylthio)-5α-pregnan-20-one], 23 nM.

Staying with this test, now noted: inhibition of [35S]TBPS (2 nM) binding, rat cerebral cortex P2 membranes, 5 µM GABA, 90 minute incubation at 22°C; sodium salt.
For `C[C@]12CC[C@@H](O)C[C@@H]1CC[C@@H]1[C@@H]2CC[C@]2(C)[C@@H](C(=O)COC(=O)CCC(=O)O)CC[C@@H]12` [3α,21-dihydroxy-5α-pregnan-20-one 21-hemisuccinate, sodium salt], the IC50 was 251 nM.
On to `C[C@@]1(O)CC[C@@]2(C)[C@@H](CC[C@@H]3[C@@H]2CC[C@]2(C)[C@@H](C(=O)COC(=O)CCC(=O)O)CC[C@@H]32)C1` [3α,21-dihydroxy-3β-methyl-5α-pregnan-20-one 21-Hemisuccinate, sodium salt], for which the IC50 worked out at 211 nM.

These data come from patent EP0701444B1, “METHODS AND COMPOSITIONS FOR INDUCING SLEEP” (Purdue Pharma Ltd., priority 1993, dated 1994).
